Like-named read-outs stand apart in the source and are kept apart here.
Legend:
[1] = target: T1, NAD synthetase (recombinant protein from B. subtilis; purified) (Bacillus subtilis, UniProt P08164); experiment: NAD synthetase enzyme inhibition assay (coupled enzymatic assay, HTS); type: biochemical
T1 construct: made in house

[2] = test system: Candida albicans (ATCC 10231); experiment: Minimum Inhibitory Concentration (MIC) against yeast, broth dilution; type: cell-based; conditions: Candida albicans, ATCC10231; 37° C., 20 hours, mean of duplicate; read-out: MIC Candida albicans (ATCC 10231)
[3] = test system: Candida tropicalis (ATCC 28707-amphotericin B-resistant); experiment: as above; type: cell-based; conditions: Candida tropicalis, ATCC28707, 37° C., 20 hours, mean of duplicate
[4] = test system: Candida tropicalis (ATCC 750); experiment: as above; type: cell-based; conditions: Candida tropicalis, ATCC750; 37° C., 20 hours, mean of duplicate
[5] = In vivo toxicity: intraperitoneal (IP) dosage in mice resulting in 50% lethality (LD50); conditions: mouse, in vivo; male CD-1 mice, single IP dose, observed 14 days
[6] = test system: Candida tropicalis ATCC 750; experiment: In vitro study of inhibition of growth and lethality against yeast (MIC/MLC susceptibility test), isolate A; type: cell-based; conditions: Candida tropicalis, 2nd pair of lines, isolate assigned by line order
[7] = test system: Candida tropicalis ATCC 28707; experiment: In vitro study of inhibition of growth and lethality against yeast (MIC/MLC susceptibility test), isolate B; type: cell-based; conditions: Candida tropicalis, 1st pair of lines, isolate assigned by line order
[8] = test system: Candida albicans KJP-000531594; experiment: In vitro study of inhibition of growth and lethality against yeast (MIC/MLC susceptibility test), isolate C; type: cell-based; conditions: Candida albicans, Candida albicans, 1st pair of lines
[9] = test system: Candida albicans LH-000664533; experiment: In vitro study of inhibition of growth and lethality against yeast (MIC/MLC susceptibility test), isolate D; type: cell-based; conditions: Candida albicans, Candida albicans, 2nd pair of lines, isolate assigned by line order
[10] = test system: Torulopsis glabrata JHC-BC9951635; experiment: In vitro study of inhibition of growth and lethality against yeast (MIC/MLC susceptibility test), isolate E; type: cell-based; conditions: Torulopsis glabrata, 2nd pair of lines, isolate assigned by line order
[11] = test system: Torulopsis glabrata ERH-BC9938274; experiment: In vitro study of inhibition of growth and lethality against yeast (MIC/MLC susceptibility test), isolate F; type: cell-based; conditions: Nakaseomyces glabratus, Torulopsis glabrata, 1st pair of lines, isolate assigned by line order
[12] = test system: Cryptococcus neoformans DLB-1027594CNC; experiment: In vitro study of inhibition of growth and lethality against yeast (MIC/MLC susceptibility test), isolate G; type: cell-based; conditions: Cryptococcus neoformans, 1st pair of lines, isolate assigned by line order
[13] = test system: Cryptococcus neoformans SLP-BC0012854; experiment: In vitro study of inhibition of growth and lethality against yeast (MIC/MLC susceptibility test), isolate H; type: cell-based; conditions: Cryptococcus neoformans, 2nd pair of lines, isolate assigned by line order

T1 sequence (P08164 whole entry): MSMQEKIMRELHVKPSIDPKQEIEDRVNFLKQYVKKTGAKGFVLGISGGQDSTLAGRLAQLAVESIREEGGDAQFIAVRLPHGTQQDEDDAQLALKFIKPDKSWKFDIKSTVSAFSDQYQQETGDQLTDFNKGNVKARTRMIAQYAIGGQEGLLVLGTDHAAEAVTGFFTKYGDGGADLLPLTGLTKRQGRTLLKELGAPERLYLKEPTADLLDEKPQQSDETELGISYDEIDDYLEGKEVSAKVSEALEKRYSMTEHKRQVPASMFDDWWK

COC(=O)c1cc2cc(OCc3ccccc3)ccc2n1CCCCCCCOC(=O)Cc1ccc([N+](C)(C)C)cc1.[I-] [Compound 988]
IC50 [1]: 10 µM | IC50 ([1]; IC50 (μg/mL) for Inhibit. of NAD Synthetase, table of structures used in the yeast assay (Example 4)): 14.3 µM | MIC [2]: 0.1 µg/mL | MIC [3]: 0.15 µg/mL | MIC [4]: 0.024 µg/mL | LD50 at 14 days [5]: 135 mg/kg | MFC ([6]; ATCC750, read-out: Minimum Lethal Conc. (MLC)): 1 µg/mL | MIC ([6]; ATCC750, 24 h, read at 24 hr, read-out: Minimum Inhibitory Conc. (MIC), 24 hr.): 1 µg/mL | MIC ([6]; ATCC750, 48 h, read at 48 hr, read-out: Minimum Inhibitory Conc. (MIC), 48 hr.): 1 µg/mL | MFC ([7]; ATCC28707, read-out: Minimum Lethal Conc. (MLC)): 1 µg/mL | Minimum Inhibitory Conc. (MIC), 24 hr. ([7]; read at 24 hr): 1 µg/mL | Minimum Inhibitory Conc. (MIC), 48 hr. ([7]; read at 48 hr): 1 µg/mL | MIC ([7]; ATCC28707, 24 h, read at 24 hr, read-out: Minimum Inhibitory Conc. (MIC), 24 hr.): 0.5 µg/mL | MIC ([7]; ATCC28707, 48 h, read at 48 hr, read-out: Minimum Inhibitory Conc. (MIC), 48 hr.): 0.5 µg/mL | MIC ([8]; KJP000531594, 24 h, read at 24 hr, isolate not given, assigned by line order and MLC of Table 4B, read-out: Minimum Inhibitory Conc. (MIC), 24 hr.): 1 µg/mL | MIC ([8]; KJP000531594, 48 h, read at 48 hr, isolate assigned by line order, read-out: Minimum Inhibitory Conc. (MIC), 48 hr.): 1 µg/mL | MFC ([8]; KJP000531594, isolate assigned by line order, read-out: Minimum Lethal Conc. (MLC)): 1 µg/mL | MIC ([9]; LH000664533, 24 h, read at 24 hr, read-out: Minimum Inhibitory Conc. (MIC), 24 hr.): 1 µg/mL | MIC ([9]; LH000664533, 48 h, read at 48 hr, read-out: Minimum Inhibitory Conc. (MIC), 48 hr.): 2 µg/mL | MFC ([9]; LH000664533, read-out: Minimum Lethal Conc. (MLC)): 2 µg/mL | MIC ([10]; Nakaseomyces glabratus, JHCBC9951635, 24 h, read at 24 hr, read-out: Minimum Inhibitory Conc. (MIC), 24 hr.): 1 µg/mL | MIC ([10]; Nakaseomyces glabratus, JHCBC9951635, 48 h, read at 48 hr, read-out: Minimum Inhibitory Conc. (MIC), 48 hr.): 2 µg/mL | MFC ([10]; Nakaseomyces glabratus, JHCBC9951635, read-out: Minimum Lethal Conc. (MLC)): 2 µg/mL | Minimum Inhibitory Conc. (MIC), 24 hr. ([10]; read at 24 hr): 2 µg/mL | MIC ([11]; ERHBC9938274, 24 h, read at 24 hr, read-out: Minimum Inhibitory Conc. (MIC), 24 hr.): 2 µg/mL | MIC ([11]; ERHBC9938274, 48 h, read at 48 hr, read-out: Minimum Inhibitory Conc. (MIC), 48 hr.): 2 µg/mL | MFC ([11]; ERHBC9938274, read-out: Minimum Lethal Conc. (MLC)): 2 µg/mL | Minimum Inhibitory Conc. (MIC), 72 hr. ([12]; read at 72 hr): 2 µg/mL | MIC ([12]; DLB1027594CNC, 48 h, read at 48 hr, read-out: Minimum Inhibitory Conc. (MIC), 48 hr.): 1 µg/mL | MIC ([12]; DLB1027594CNC, 72 h, read at 72 hr, read-out: Minimum Inhibitory Conc. (MIC), 72 hr.): 1 µg/mL | MFC ([12]; DLB1027594CNC, read-out: Minimum Lethal Conc. (MLC)): 4 µg/mL | Minimum Inhibitory Conc. (MIC), 72 hr. ([13]; read at 72 hr): 2 µg/mL | MIC ([13]; SLPBC0012854, 48 h, read at 48 hr, read-out: Minimum Inhibitory Conc. (MIC), 48 hr.): 1 µg/mL | MIC ([13]; SLPBC0012854, 72 h, read at 72 hr, read-out: Minimum Inhibitory Conc. (MIC), 72 hr.): 1 µg/mL | MFC ([13]; SLPBC0012854, read-out: Minimum Lethal Conc. (MLC)): 4 µg/mL
